In paper PMC12005229, “Final results from the phase Ia/Ib study of the novel bromodomain and extra-terminal domain inhibitor, BI 894999, in patients with advanced solid tumors or diffuse large B-cell lymphoma” (ESMO Open, 2025):

Legend:
[1] = tested on: patients with advanced solid tumors (SCLC, CRC, mCRPC, NUT carcinoma); test: phase Ib expansion: tumor response (RECIST 1.1), PFS, OS; format: in vivo, human; conditions: for Best overall response: complete response / Best overall response: not evaluable / Best overall response: partial response / Best overall response: progressive disease / Best overall response: stable disease / Disease control / Median PFS / Objective response / Median OS: phase Ib
Experimental: PFS was measured for the period from the start of treatment to the occurrence of progressive disease or death. Tumor response was measured using RECIST 1.1[28] for patients with solid tumors and RECIL 2017[29] for those with DLBCL. OS was assessed in patients with NUT carcinoma; the OS status was to continue until 12 months after the end of the study.
Supplementary Table 1. […]
• Objective response (OR), defined as complete response (CR) or partial response (PR) with tumor assessment during treatment period for each schedule according to Response Evaluation Criteria in Solid Tumors (RECIST) version 1.1. For DLBCL patients, a minor response according to Response Evaluation Criteria in Lymphoma (RECIL) 2017 was not part of an OR […]
• Progression-free survival (PFS), defined from date of start of BI 894999 to the date of objective disease progression or death, whichever was earlier, with tumor assessment every 2 cycles (every 6 weeks for Schedule B if no delays or as close as possible to the end of the second of the 2 cycles of treatment if there was a delay) during the treatment period
Radiological PFS with tumor assessment by bone scan every 4 cycles for mCRPC patients with non-measurable disease by RECIST 1.1 […]
• Overall survival in patients with NUT carcinoma. This was for patients in the trial after approval of […]
The overall survival status was to continue until 12 months after the end of trial […]
AUC0–24, area under the plasma concentration–time curve over the 24-hour dosing interval; AUCτ, ss , area under the plasma concentration–time curve over the dosing interval τ at steady state; AE, adverse event; Cmax, maximal exposure; Cma x , s s , maximal exposure at steady state; DLBCL, diffuse large B- cell lymphoma; DLT, dose-limiting toxicity; mCRPC, metastatic castration-resistant prostate cancer; NUT, nuclear protein in […]

BRD4-BD1 = tested on: BRD4-BD1; set-up: method as in PMID 35444289; conditions: read-out: IC50, inhibition of interaction of acetylated histone H4-derived peptide with BRD4-BD1; cited from earlier work
BRD4-BD2 = tested on: BRD4-BD2; set-up: method as in PMID 35444289; conditions: read-out: IC50, inhibition of interaction of acetylated histone H4-derived peptide with BRD4-BD2; cited from earlier work

With `CNc1nc(-c2nc3ccc(N4CCN(C)CC4)cc3n2Cc2ccccc2)cn2c(C)nnc12` [BI 894999] the “patients with SD” value ([1]; CRC) was 2 n, the “observed objective response rate” value ([1]; NUT carcinoma) was less than 10% and the patients not assessable ([1]; NUT carcinoma, 42 patients) was 19.0%. For the same compound, the “patients with SD” value ([1]; NUT carcinoma, 42 patients) was 31.0%, the “patients with complete response” value ([1]; NUT carcinoma, 42 patients) was 1 n and the “patients with confirmed CR” value ([1]; NUT carcinoma, 42 patients) was 2.4%. For the same compound, the “patients with disease control” value ([1]; NUT carcinoma, 42 patients) was 16 patients, the “patients with progressive disease” value ([1]; NUT carcinoma, 42 patients) was 42.9% and the patients with responses ([1]; NUT carcinoma, 42 patients) was 7.1%. For the same compound, the “duration of response (DOR) of confirmed CR” value ([1]; NUT carcinoma, one patient) was 253 days, the “duration of response (DOR) of confirmed PR” value ([1]; NUT carcinoma, one patient) was 588 days and the “patients with SD” value ([1]; SCLC) was 1 n. For the same compound, the “patients with SD” value ([1]; mCRPC) was 2 n, the “duration of response (DOR) of confirmed PR” value ([1]; mCRPC, one patient) was 46 days and the patients not assessable ([1]; other solid tumor types n = 37) was 24.3%. The “patients with SD” value ([1]; other solid tumor types n = 37) was 13.5%, the “patients with confirmed PR (mCRPC)” value ([1]; other solid tumor types n = 37) was 2.7% and the “patients with progressive disease” value ([1]; other solid tumor types n = 37) was 59.5%. For the same compound, the “patients with confirmed CR (BOR)” value ([1]; phase Ib n = 79) was 1.3%, the “Best overall response: complete response” value ([1]; CRC) was 0 (0.0) n (%) and the “Best overall response: not evaluable” value ([1]; CRC) was 2 (14.3) n (%). For the same compound, the “Best overall response: partial response” value ([1]; CRC) was 0 (0.0) n (%), the “Best overall response: progressive disease” value ([1]; CRC) was 10 (71.4) n (%) and the “Best overall response: stable disease” value ([1]; CRC) was 2 (14.3) n (%). For the same compound, the Disease control ([1]; CRC) was 2 (14.3) n (%), the “Median PFS” value ([1]; CRC) was 5.6 weeks and the Objective response ([1]; CRC) was 0 (0.0) n (%). For the same compound, the “Best overall response: complete response” value ([1]; NUT carcinoma (Schedule B)) was 0 (0.0) n (%), the “Best overall response: not evaluable” value ([1]; NUT carcinoma (Schedule B)) was 3 (15.0) n (%) and the “Best overall response: partial response” value ([1]; NUT carcinoma (Schedule B)) was 1 (5.0) n (%). The “Best overall response: progressive disease” value ([1]; NUT carcinoma (Schedule B)) was 9 (45.0) n (%), the “Best overall response: stable disease” value ([1]; NUT carcinoma (Schedule B)) was 7 (35.0) n (%) and the Disease control ([1]; NUT carcinoma (Schedule B)) was 8 (40.0) n (%). The “Median OS” value ([1]; NUT carcinoma (Schedule B)) was 6.6 weeks, the “Median PFS” value ([1]; NUT carcinoma (Schedule B)) was 6.9 weeks and the Objective response ([1]; NUT carcinoma (Schedule B)) was 1 (5.0) n (%). The “Best overall response: complete response” value ([1]; NUT carcinoma (Schedule C)) was 1 (4.5) n (%), the “Best overall response: not evaluable” value ([1]; NUT carcinoma (Schedule C)) was 5 (22.7) n (%) and the “Best overall response: partial response” value ([1]; NUT carcinoma (Schedule C)) was 1 (4.5) n (%). For the same compound, the “Best overall response: progressive disease” value ([1]; NUT carcinoma (Schedule C)) was 9 (40.9) n (%), the “Best overall response: stable disease” value ([1]; NUT carcinoma (Schedule C)) was 6 (27.3) n (%) and the Disease control ([1]; NUT carcinoma (Schedule C)) was 8 (36.4) n (%). The “Median OS” value ([1]; NUT carcinoma (Schedule C)) was 15.4 weeks, the “Median PFS” value ([1]; NUT carcinoma (Schedule C)) was 7.8 weeks and the Objective response ([1]; NUT carcinoma (Schedule C)) was 2 (9.1) n (%). The “Median OS” value ([1]; NUT carcinoma total) was 15.4 weeks, the “Best overall response: complete response” value ([1]; SCLC) was 0 (0.0) n (%) and the “Best overall response: not evaluable” value ([1]; SCLC) was 3 (25.0) n (%). The “Best overall response: partial response” value ([1]; SCLC) was 0 (0.0) n (%), the “Best overall response: progressive disease” value ([1]; SCLC) was 8 (66.7) n (%) and the “Best overall response: stable disease” value ([1]; SCLC) was 1 (8.3) n (%). The Disease control ([1]; SCLC) was 1 (8.3) n (%), the “Median PFS” value ([1]; SCLC) was 5.6 weeks and the Objective response ([1]; SCLC) was 0 (0.0) n (%). The “Best overall response: complete response” value ([1]; mCRPC) was 0 (0.0) n (%), the “Best overall response: not evaluable” value ([1]; mCRPC) was 4 (36.4) n (%) and the “Best overall response: partial response” value ([1]; mCRPC) was 1 (9.1) n (%). For the same compound, the “Best overall response: progressive disease” value ([1]; mCRPC) was 4 (36.4) n (%), the “Best overall response: stable disease” value ([1]; mCRPC) was 2 (18.2) n (%) and the Disease control ([1]; mCRPC) was 3 (27.3) n (%). For the same compound, the “Median PFS” value ([1]; mCRPC) was 11.9 weeks, the Objective response ([1]; mCRPC) was 1 (9.1) n (%) and the “Best overall response: complete response” value ([1]; total) was 1 (1.3) n (%). For the same compound, the “Best overall response: not evaluable” value ([1]; total) was 17 (21.5) n (%), the “Best overall response: partial response” value ([1]; total) was 3 (3.8) n (%) and the “Best overall response: progressive disease” value ([1]; total) was 40 (50.6) n (%). For the same compound, the “Best overall response: stable disease” value ([1]; total) was 18 (22.8) n (%), the Disease control ([1]; total) was 22 (27.8) n (%) and the “Median PFS” value ([1]; total) was 6.9 weeks. The Objective response ([1]; total) was 4 (5.1) n (%), the IC50 (BRD4-BD1) was 0.005 ± 0.003 µM and the IC50 (BRD4-BD2) was 0.041 ± 0.03 µM.
